According to patent US9872871B2, “Compositions for use in restoring muscle glycogen and/or muscle mass” (Aarhus Universitet, priority 2013, dated 2018):
“Also recorded” adds a separate entry of the source.

Legend:
[1] = tested on: muscle glycogen (vastus lateralis); test: Muscle glycogen resynthesis after glycogen depleting exercise, double blinded crossover, vastus lateralis biopsies; format: in vivo, human
Procedure: In this example, the effect is examined of a 500 mg steviol glycosides supplementation together with post-exercise oral carbohydrate (1.5 g/kg/h), versus an isocaloric carbohydrate supplementation on muscle glycogen resynthesis, following glycogen depletive exercise. Fifteen trained male cyclists performed two cycling sessions of 120 min at 75-85% Vo2-max, with the post exercise supplementation of stevioside organized in a double blinded crossover study design. Over the course of a 4 h of recovery period, muscle biopsies were obtained from the vastus lateralis immediately and 240 minutes after exercise, to measure post-recovery glycogen concentration and rate of post-exercise glycogen synthesis. In order to measure plasma glucose, insulin and glucagon, blood samples were drawn before and immediately after exercise, and at every half hour during the four hour recovery period. Results A significant increase in total glycogen concentration was seen following the 4 hour of recovery in both trials (p<0.005). […] Plasma glucose and glucagon levels also show a reduction when stevioside was supplied.
In the present study, a double blinded crossover protocol was used to examine the effect of post exercise carbohydrate ingestion supplemented with or without stevioside supplementation on muscle glycogen resynthesis. The double blinded crossover protocol was chosen to ensure a satisfactory statistical power with the relative few subjects that were included in this study. After completing a preliminary anthropometric assessment incremental and VO2-max test, each subject completed two randomized experimental trials; separate by at least seven days.
After the preliminary testing, each subject underwent two experimental trials, with the experimental supplementation randomized using a randomizing software (Research randomizer) and blinded to both subject and researchers by supplementing the stevioside concealed in capsules. […] The two experimental trials were separated by at least seven days. The subjects were instructed to refrain from any intense exercise 24 hour before both the preliminary test and the two experimental trials. […]
As illustrated the table below, the subjects arrived fasting at 8:00 o'clock a.m. in the lab and completed a glycogen depletion ride consisting of 120 minutes cycling at 75%-80% of their maximal heart rate reserve, followed by a series of five 30 seconds sprint interval at an all-out intensity interspaced with a rest period of 60 seconds. Workload and target heart rate zone was calculated for the subjects, based on the results presented in table 1, performance characteristics of the subjects. […]

[2] = Plasma glucose, insulin and glucagon during the four hour recovery period; format: in vivo, human
Procedure: Before the subjects started the depletion ride, blood was drawn from a medial antecubital vein to establish baseline values for plasma glucose, plasma insulin and plasma glucagon concentrations. After completion of the depletion ride and 240 minutes later, a muscle biopsy was obtained from the vastus lateralis muscle by the use of a percutaneous needle biopsy technique, using the protocol described by Bergström (Bergström 1962). The biopsy sampling was performed by a trained physician with extensive experience in sterile technique. An area of anterolateral side of one thigh was disinfected with chlorhexidine, and local anesthetized with lidocaine (10 mg/ml) in the skin, subcutaneous tissue and muscle fascia. After the area was covered with a sterile hole-piece, a small incision in the skin and fascia of the leg was made with a scalpel and a tissue sample was taken with a Bergström biopsy needle with the aid of suction. The biopsy procedure was managed by Mikkel Overgaard, and assisted by Søren Lavrsen. Approx. 100 mg of muscle tissue was taken from the vastus lateralis muscle. The muscle tissue samples were weighted and immediately placed in liquid nitrogen, and then transferred to a freezer (−80° C.) for storage until analysis for determination of glycogen concentration would be made. At the same time a polyethylene catheter was placed subcutaneous into a medial antecubital vein from which blood samples were collected. 10 ml of blood were drawn for the analysis of plasma glucose and insulin, and 7.5 ml of blood was drawn for the analysis of plasma glucagon. After the first sample at 0 minutes, blood was drawn at 30, 60, 90, 120, 150, 180, 210 and 240 minutes after the subject has finished the glycogen depletion protocol. Blood samples were centrifuged before 2 ml of the plasma was pipetted into standard analyzing tubes and stored at −80° C. for later analysis.
Immediately after the muscle biopsy procedure and initial blood sampling, the subjects ingested either 500 mg of steviol glucosides, or placebo (500 mg of corn starch) Supplementation, together with 1.5 gr/body weight of liquid maltodextrine solution (Pure Power, Harre Denmark). The sequence of stevioside and placebo supplementation was randomized in a balanced order. At 60, 120 and 180 minutes after termination of the depletion ride, the subjects received another carbohydrate rich feeding (1.5 gr/body weight/hour of Carbohydrates/kg body weight/hour), in accordance with the guidelines recommended by (Ivy et al. 1988).
Blood samples were collected for the measurements for measurement of the plasma glucose, insulin and glucagon values before initiation of the glycogen depletion protocol and at 0, 30, 60, 90, 120, 150, 180, 210 and 240 minutes after the subject has finished the glycogen depletion protocol.
10 ml of blood were drawn for the analysis of plasma glucose and insulin, and 7.5 ml of blood was drawn for the analysis of plasma glucagon. All blood was drawn from the antecubital vein. For glucose and insulin the drawn blood was collected in lilthium heparinized tubes (Venosafe—plasma VF-109SHL, Terumo Europe N.V., Leuven, Belgium). For glucagon the drawn blood was collected in EDTA treated tubes (Venosafe). With all samples the tubes were turned over 10 times, to avoid coagulation, before they were centrifuged at 1500 G for 10 minutes at 5° C. using a Sigma 3-18 centrifuge (Sigma Laborzentrifugen GmbH, Osterode am Harz, Germany). 2 ml of the plasma was pipetted into standard analyzing tubes and stored at −80° C. for later analysis. After all testing sessions were finished; all blood samples were packed, according to regulations, in an icebox at […], and transported to the Diabetes laboratory 4, at Aarhus University Hospital, Tage-Hansens Gade (Aarhus, Denmark) for analysis of plasma glucose, insulin and glucagon concentration. […]

[3] = type 2 diabetic subjects, cited from earlier work
isolated mouse islets = details: effect faded at normal to low glucose; cited from earlier work
[4] = type II diabetic patients, cited from earlier work
[5] = lean and obese Zucker rats; 200 or 500 mg/kg by gavage; cited from earlier work
[6] = tested on: skeletal muscle glucose transport system; details: soleus and epitrochlearis muscles of lean and obese Zucker rats; dose-dependent; cited from earlier work
[7] = Wistar rats, 20 mg/kg orally daily for 5 days, cited from earlier work

C=C1C[C@@]23CC[C@H]4[C@@](C)(CCC[C@@]4(C)C(=O)O[C@@H]4O[C@H](CO)[C@@H](O)[C@H](O)[C@H]4O)[C@@H]2CC[C@]1(O[C@@H]1O[C@H](CO)[C@@H](O)[C@H](O)[C@H]1O[C@@H]1O[C@H](CO)[C@@H](O)[C@H](O)[C@H]1O)C3 [stevioside, Stevioside]
increase of glycogen resynthesis rate compared to placebo ([1]; 4 h recovery, 500 mg orally with carbohydrate): 35%
glycogen resynthesis rate (rate of glycogen repletion) ([1]; 4 h recovery, 500 mg steviol glycosides orally with carbohydrate 1.5 g/kg/h, mean±SE, placebo 27.96±2.6): 37.84 ± 3.72 mmol/kg/h
muscle glycogen concentration ([1]; 240 minutes after completion of the depletion protocol, placebo 246.4±20): 281.5±29 mmol/kg/dw
effect on post-exercise muscle glycogen resynthesis ([1]; four hour recovery period, in addition to carbohydrate, p<0.022): increase muscle glycogen resynthesis significantly
time of second plasma insulin peak concentration ([2]; after third CHO feeding at 120 minutes, placebo at 150): 180 min
difference in plasma insulin concentration between stevioside and control (iAUC) ([2]; any times during the recovery period, p=0.95): no significant difference
plasma glucagon concentration (area under the curve) compared to placebo ([2]; four hour recovery period): reduction
plasma glucagon concentration (area under the curve) compared to placebo ([2]; four hour recovery period, listed as stevia): clearly reduced
plasma glucose response (iAUC) compared to placebo ([2]; four hour recovery period, not statistically significant): reduction; also recorded: lower
plasma insulin, mean area under the curve ([2]; four hour recovery period, placebo 55790±12660): 56720±11950 ng/ml*4 hours
suppression of postprandial blood glucose level ([3]; 1 g stevioside with standard meal vs maize starch): 18%
circulating insulin levels ([3]; 1 g stevioside with standard meal): tended to be increased
insulin release (isolated mouse islets): glucose-dependent insulin release
postprandial glucagon like peptide-1 level ([4]; 1 g orally): significantly reduced
insulin response ([4]; 1 g orally, not statistically significant): tended to stimulate insulin response
reduction of post prandial blood glucose response compared to placebo ([4]; 1 g stevioside orally with standard meal): 18.5%
fasting plasma glucose and insulin [5]: did not significantly affect
insulin action on skeletal muscle glucose transport system [6]: improves the insulin action
glucose levels before the glucose test compared to control group [7]: no significant decrease
glucose levels under increased loading during the glucose test ([7]; stevioside alone): conferred beneficial effects
